Among the data in patent US11000627B2, “Treatment of implants with phosphonic acid compounds” (Nano Bridging Molecules SA, priority 2016, dated 2021) are Phosphorus/Metal and thickness of monolayer values, retold here.

Molecules are shown by their SMILES. Marks after values point to notes of the source that are not given here.

Data set [1] in a line: XPS phosphorus over metal ratio on ceramic dental implants. The format is physicochemical. The settings on record: sonicated 70° C. 60 min, Metal = Al2s + Zr3d + Y3d. How it is done: A ceramic dental implant (alumina toughened zirconia, yttria stabilized; length 11.0 mm, diameter 3.8 mm) was provided with a smooth surface. The dental implant was immersed in 50 ml of a 2% (v/v) aqueous solution of deconex 15 PF-x (which is a phosphate free, potassium hydroxide based standard cleaning agent). The solution was placed in an ultrasonic bath (output frequency 30 kHz) and sonicated at 70° C. for 15 min. This step was repeated a second time. The implant was removed from the cleaning agent solution and rinsed with water as follows: 2 times with 50 ml, swirling at room temperature; 3 times with 50 ml, sonicating for 2 min at 70° C. The implant was then placed into 15 ml of a 0.7 mM aqueous solution of 1,1,3,3-propane tetraphosphonic acid. The solution was placed in the ultrasonic bath and sonicated at 70° C. for 60 min. The implant was rinsed with water as follows: 1 time with 10 ml, swirling at room temperature; 2 times with 10 ml, sonicating for 2 min at 65° C.; 1 time with 10 ml, swirling at room temperature. The dental implant was dried in a desiccator over P2O5 and under vacuum (ca 20 mbar) for at least 3 hours.
Following the surface treatment with one phosphonic acid compound as described in Examples 1 to 7 the samples were analyzed by X-ray photoelectron spectroscopy (XPS). XPS analyses were performed on an Axis Ultra spectrometer from Kratos (Kratos, Manchester, U.K.) equipped with a concentric hemispherical analyzer and using a monochromatized aluminum anode X-ray source (Al Kα1,2 1486.6 eV, full width at half maximum, fwhm=0.85 eV, 15 kV, 150 W). The samples were investigated under ultrahigh vacuum conditions: 10^−8-10^−7 Pa. Spectra were taken at a 90° takeoff angle with respect to the surface. A sample area of 300×700 μm^2 or 700×700 μm^2 was analyzed with a pass energy of 80.0 eV for survey scans. The spectrometer was calibrated by using Cu 2p3/2 (932.7 eV) and Au 4f7/2 (84.0 eV) signals. Surface sensitivity factors used to determine the atomic concentrations were those of the instrument. Spectra were peak fitted after background subtraction by assuming a Gaussian/Lorentzian (90-70/10-30) peak shape. All peaks between 0 eV to 1200 eV were inspected.
The phosphorus over metal ratio (“Phosphorus/Metal”) was calculated dividing the % atomic concentration of phosphorus by the sum of the % atomic concentrations of all metals expected in the analyzed sample.
Four ceramic dental implants (alumina toughened zirconia, yttria stabilized; length 11.0 mm, diameter 3.8 mm) were provided with a smooth surface. The dental implants were immersed in 300 ml of a 2% (v/v) aqueous solution of deconex 15 PF-x (which is a phosphate free, potassium hydroxide based standard cleaning agent). […] The samples were analyzed by X-ray photoelectron spectroscopy (XPS). […]

Data set [2] is described as follows: Thickness of phosphonic acid layer by depth profiling using XPS. The data set is classed as physicochemical. The settings on record: for Phosphorus/Metal: Metal = Zr3d + Y3d. As for the experimental part: Two ceramic discs (yttria stabilized zirconia; length 5.0 mm, diameter 1.0 mm) were provided with a roughened surface, produced by sand blasting and acid etching according to industry standards. The discs were immersed in 80 ml of a 2% (v/v) aqueous solution of deconex 15 PF-x (which is a phosphate free, potassium hydroxide based standard cleaning agent). The solution was placed in an ultrasonic bath (output frequency 30 kHz) and sonicated at 70° C. for 15 min. This step was repeated a second time. The discs were removed from the cleaning agent solution and rinsed with water as follows: 2 times with 90 ml, swirling at room temperature; 3 times with 90 ml, sonicating for 2 min at 70° C. The discs were then placed into 2 glass bottles and immersed into 2.5 ml of a 0.7 mM aqueous solution of 1,1,3,3-propane tetraphosphonic acid. The solutions were placed in the ultrasonic bath and sonicated at 70° C. for 60 min. The discs were rinsed with water as follows: 1 time with 10 ml, swirling at room temperature; 1 time with 10 ml, sonicating for 2 min at 65° C.; 1 time with 10 ml, swirling at room temperature. The discs were dried in a desiccator over P2O5 and under vacuum (ca 20 mbar) for at least 3 hours.
Following the surface treatment, the thickness of the phosphonic acid layer was determined by depth profiling using XPS. Ion gun sputtering cycles were alternated with XPS measurements. An ion gun was used to etch the material for a defined period of time. Once turned off, XPS spectra were acquired. The depth profiles were performed using a Kratos AXIS Nova high resolution spectrometer. An Al-standard source was used for the measurement. Depth profile sputtering was performed by scanning a 3.8 keV Ar+ beam at 100 μA extractor current over an area of 4 mm×4 mm. The sputter rate of Ta2O5 standards measured under these conditions (6 nm/min) was used to convert sputter time in approximate sputter depth. Spectra were measured after the following sputtering times: 0, 5, 10, 15, 20, 30, 40, 60 sec. Spectra were peak fitted after background subtraction by assuming a Gaussian/Lorentzian (90-70/10-30) peak shape. All peaks between 0 eV to 1200 eV were inspected.
The phosphorus peak was measured at % atomic concentrations close to the detection limit (0.5%) after 10 seconds of sputtering.

With `O=P(O)(O)C(CC(P(=O)(O)O)P(=O)(O)O)P(=O)(O)O` [1,1,3,3-propane tetraphosphonic acid], the Phosphorus/Metal is recorded as 0.12 in data set [1] (0.7 mM); 0.12 in data set [1] (2.5 mM); 0.11 in data set [1] (5 mM); 0.12 in data set [1] (10 mM); 0.18^b in data set [2] (sputtering 0 sec, depth 0 nm); 0.03^b in data set [2] (sputtering 5 sec, depth 0.5 nm). Also, the Phosphorus/Metal in data set [2] (sputtering 10 sec, depth 1 nm) is on record as 0.02^b; in data set [2] (sputtering 15 sec, depth 1.5 nm), 0.02^b; in data set [2] (sputtering 20 sec, depth 2 nm), 0.01^b; in data set [2] (sputtering 30 sec, depth 3 nm), 0.02^b; in data set [2] (sputtering 40 sec, depth 4 nm), 0.01^b; in data set [2] (sputtering 60 sec, depth 6 nm), 0.00^b. Also, the thickness of monolayer entry in data set [2] (0.7 mM, sonicated 70° C. 60 min, sputter depth from Ta2O5 standard rate) is “about 1 nm”.
